Among the data in patent US6960580B2, “Nitrogenous heterocyclic substituted quinoline compounds” (Millennium Pharmaceuticals, Inc., priority 2001, dated 2005) are IC50 values, retold here.

pIC50: −log10 of the molar value.

In assay [1] the target is T1, β-PDGFR (Homo sapiens, UniProt P09619). The experiment in a line: HR5 phosphorylation assay (CHO cells overexpressing human β-PDGFR, PDGF BB stimulation). Also noted: host or cells: CHO cells (HR5 line). Particulars: 8 nM PDGF BB, PDGF receptor phosphorylation. The assay is classed as cell-based.
Protocol: • (1) HR5 Phosphorylation Assay
The HR5 cell line is a cell line of CHO cells engineered to overexpress human β-PDGFR, which cell line is available from the ATCC. The expression level of β-PDGFR in HR5 cells is around 5×10^4 receptor per cell. For the phosphorylation assay according to the invention, HR5 cells were grown to confluency in 96-well microtiter plates under standard tissue culture conditions, followed by serum-starvation for 16 hours. Quiescent cells were incubated at 37° C. without or with increasing concentrations of the test compound (0.01-30 uM) for 30 minutes followed by the addition of 8 nM PDGF BB for 10 minutes. Cells were lysed in 100 mM Tris, pH 7.5, 750 mM NaCl, 0.5% Triton X-100, 10 mM sodium pyrophosphate, 50 mM NaF, 10 ug/ml aprotinin, 10 ug/ml leupeptin, 1 mM phenylmethylsulfonyl fluoride, 1 mM sodium vanadate, and the lysate was cleared by centrifugation at 15,000× g for 5 minutes. Clarified lysates were transferred into a second microtiter plate in which the wells were previously coated with 500 ng/well of 1B5B11 anti-β-PDGFR mAb, and then incubated for two hours at room temperature. […] Wells were washed prior to adding ABTS (Sigma), and the rate of substrate formation was monitored at 650 nm.
Assay [2] has as its target T1, β-PDGFR. As to the kind of experiment: MG63 phosphorylation assay (endogenous β-PDGFR phosphorylation, PDGF-BB stimulation with human plasma). It counts as cell-based. The following applies: MG63 human osteosarcoma cells; PDGF-BB stimulation in presence of 45% human plasma; PDGF receptor phosphorylation; read-out: MG63 w/human plasma IC50. More on the design: This assay is for measuring endogenous β-PDGFR phosphorylation in MG63 cells; endogenous in cells; host or cells: MG63 human osteosarcoma cells (ATCC).
Description: The MG63 cell line is a human osteosarcoma tumor cell line available from the ATCC. This assay is for measuring endogenous β-PDGFR phosphorylation in MG63 cells. The assay conditions are the same as those described at for HR5 cell, except that PDGF-BB stimulation is provided in the presence or absence of 45% human plasma.

T1 sequence (P09619 33-1106): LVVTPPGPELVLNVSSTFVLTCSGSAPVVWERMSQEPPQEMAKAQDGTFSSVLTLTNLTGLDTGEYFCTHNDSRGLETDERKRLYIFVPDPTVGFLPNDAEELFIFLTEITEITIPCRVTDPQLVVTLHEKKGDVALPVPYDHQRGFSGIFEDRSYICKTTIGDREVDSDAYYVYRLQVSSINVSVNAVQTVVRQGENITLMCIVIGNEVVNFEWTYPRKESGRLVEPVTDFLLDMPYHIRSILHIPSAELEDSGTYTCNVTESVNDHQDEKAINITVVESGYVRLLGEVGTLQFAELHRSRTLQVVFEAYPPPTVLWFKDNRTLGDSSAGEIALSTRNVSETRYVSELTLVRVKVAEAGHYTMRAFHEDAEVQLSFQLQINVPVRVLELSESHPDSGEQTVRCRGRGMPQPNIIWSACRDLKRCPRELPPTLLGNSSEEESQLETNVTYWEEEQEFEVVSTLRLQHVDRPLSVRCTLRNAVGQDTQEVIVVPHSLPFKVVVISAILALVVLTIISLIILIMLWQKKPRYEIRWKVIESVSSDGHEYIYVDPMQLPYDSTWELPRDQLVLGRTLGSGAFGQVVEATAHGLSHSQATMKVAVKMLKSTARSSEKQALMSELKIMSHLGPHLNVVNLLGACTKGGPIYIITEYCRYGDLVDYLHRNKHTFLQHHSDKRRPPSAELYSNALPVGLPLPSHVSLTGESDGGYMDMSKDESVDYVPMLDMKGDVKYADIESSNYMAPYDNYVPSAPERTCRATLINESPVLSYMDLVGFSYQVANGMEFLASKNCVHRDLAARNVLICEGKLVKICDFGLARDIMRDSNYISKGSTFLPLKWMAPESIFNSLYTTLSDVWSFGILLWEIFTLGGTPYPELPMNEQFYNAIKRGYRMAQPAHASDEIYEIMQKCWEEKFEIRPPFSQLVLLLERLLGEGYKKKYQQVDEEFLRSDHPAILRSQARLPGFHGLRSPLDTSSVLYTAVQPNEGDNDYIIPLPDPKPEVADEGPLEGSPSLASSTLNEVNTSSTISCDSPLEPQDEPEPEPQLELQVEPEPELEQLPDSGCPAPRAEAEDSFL

`COc1cc2c(N3CCN(C(=O)Nc4ccc(OC(C)C)cc4)CC3)c(C#N)cnc2cc1OCCCN1CCCCC1` [Example 1, {4-[3-cyano-6-methoxy-7-(3-pipetidylpropoxy)quinolin-4-yl)piperazinyl}-N-[4-(methylethoxy)phenyl]carboxamide]: the pIC50 against β-PDGFR [1] was 7.22; at β-PDGFR [2], 6.87.
